PMC9923724, “Half sandwich-type osmium, ruthenium, iridium and rhodium complexes with bidentate glycosyl heterocyclic ligands induce cytostasis in platinum-resistant ovarian cancer cells and bacteriostasis in Gram-positive multiresistant bacteria” (Frontiers in Chemistry, 2023)

How the values were obtained:
[1] = tested on: vancomycin-resistant Enterococcus (VRE) clinical isolates; experiment: Broth microdilution MIC, clinical VRE isolates; type: cell-based, E. faecium; conditions: for MIC against clinical VRE isolates (as a group): 3 clinical VRE isolates; for MIC, VRE 25 051: clinical isolate 25 051, nephrostoma; for MIC, VRE 25 051 / MIC, VRE 25 498 / MIC, VRE 27 085: 2018; for MIC, VRE 25 498: clinical isolate 25 498, rectal swab; for MIC, VRE 27 085: clinical isolate 27 085, wound
Experimental: The MIC values of the complexes were determined against the reference strains of S. aureus (ATCC29213) and E. faecalis. (ATCC29212) and against clinical VRE and MRSA isolates by microdilution assays (repeated at least twice in duplicates) as described in Materials and Methods. The numbers indicate how many isolates were susceptible to the compound out of those tested; i.e., 1/6 stands for 1 isolate was susceptible out of 6 tested. […] Cells were harvested and lysed. Cellular proteins was separated on a 10% SDS-PAGE gel and were blotted. Blots were probed with 4HNE antibody (top blot), the lower blot was stained with amido black. Arrows point at band of interest. Experiments were repeated three times and a representative blot is shown. On the blots brightness and contrast were adjusted. […] Each was matched to a substance and strain by its position over the x-axis categories. / Ir-7: ND and 0/3 (left plot) and ND and 0/6 (right plot) were matched to E. faecalis/VRE and S. aureus/MRSA by position only.
We used a set of clinical isloates of S. aureus and E. faecium that were collected at the Medical Center of the University of Debrecen (Hungary) between 01. 01. 2018.—31. 12. 2020. The clinical isolates were identified using a Microflex MALDI-TOF mass spectrometer (Bruker, Billerica, MA, United States). Antibiotic susceptibility of the isolates was tested following the European Committee on Antimicrobial Susceptibility Testing ([EUCAST, 2021]) guidelines valid at the time of collection.
Microdilution experiments were performed according to the standards of EUCAST ([EUCAST, 2021]). […] The inoculated plates were incubated for 24 h at 37°C then were assessed visually. […] All experiments were performed at least twice in duplicates.

[2] = tested on: A2780 cells; experiment: Annexin V - propidium iodide double staining, flow cytometry; type: cell-based; conditions: 2 h, complexes at their IC50 (Ru-7 0.846 μM, Os-7 0.578 µM, Ir-7 0.891 µM)
Description: We verified the toxic effects of the active Ru, Os and Ir complexes by Annexin V-FITC propidium iodide (PI) double staining. The complexes were applied in concentrations corresponding to their respective IC50 values and we have not detected increases in the apoptotic (Annexin V positive population) or the necrotic (PI positive and Annexin V—PI double positive populations) as opposed to the hydrogen peroxide-treated cells used as positive control (Figure 6).
Cells were then stained with Annexin V and propidium iodide (PI) and cells were subjected to flow cytometry as described in Materials and Methods. The percent of cells in the quadrants are plotted. Data is represented as average ± SD, from three biological replicates, individual assays were performed in duplicates. Normal distribution was achieved by Box-Cox normalization of the data. Statistical significance was determined using a two-way ANOVA test, all measurement points were compared with each other. * indicate statistically significant differences between vehicle-treated (control) and treated cells (complexes or 300 µM H2O2) corresponding to the same quadrant (e.g., vehicle-treated double negative cells vs. H2O2-treated double negative cells) at p <0.05.
The proportions of dead cells was assessed using the Annexin V—propidium iodide assay and was measured using flow cytometry using BD FacsCalibur (BD Biosciences, Franklin Lakes, NJ, United States) instrument and the FITC Annexin V/Dead Cell Apoptosis kit (Life Technologies, Eugene, OR, United States) according to the manufacturer’s instructions similar to ([Bai et al., 2001]). Quadrants were set based on the FITC and PI values observed for the vehicle-treated cells. Ten thousand cells were measured and the percent in the quadrants was used for the subsequent calculation.

| SMILES | MIC against clinical VRE isolates (as a group) [1] | MIC, VRE 25 051 [1] | MIC, VRE 25 498 [1] | MIC, VRE 27 085 [1] | induction of cell death (apoptotic / necrotic populations) [2] |
| --- | --- | --- | --- | --- | --- |
| Cc1c(C)c(C)[c-](C)c1C.F[P-](F)(F)(F)(F)F.O=C(OCC1OC(n2cc(-c3ccc4ccccc4n3)nn2)C(OC(=O)c2ccccc2)C(OC(=O)c2ccccc2)C1OC(=O)c1ccccc1)c1ccccc1.[Cl][Ir+2] (mixture of isomers) [Ir-7] | no activity | 40< µM | 40< µM | 40< µM | do not induce cell death |
| Cc1ccc(C(C)C)cc1.F[P-](F)(F)(F)(F)F.O=C(OCC1OC(n2cc(-c3ccc4ccccc4n3)nn2)C(OC(=O)c2ccccc2)C(OC(=O)c2ccccc2)C1OC(=O)c1ccccc1)c1ccccc1.[Cl][Os+] (mixture of isomers) [Os-7] | 10 µM | 10 µM | 10 µM | 10 µM | do not induce cell death |
| Cc1ccc(C(C)C)cc1.F[P-](F)(F)(F)(F)F.O=C(OCC1OC(n2cc(-c3ccc4ccccc4n3)nn2)C(OC(=O)c2ccccc2)C(OC(=O)c2ccccc2)C1OC(=O)c1ccccc1)c1ccccc1.[Cl][Ru+] (mixture of isomers) [Ru-7] | 5 µM | 5 µM | 5 µM | 5 µM | do not induce cell death |
